Test results reported in patent US8012503B2, “Method of enhancing absorptions of transmucosal administration formulations” (The Chinese University of Hong Kong, priority 2004, dated 2011).
Converted amounts (≈) assume the structure as drawn.

Experiments:
[1] = pHmax calculated from Ka, Si and Su; assay type: physicochemical; conditions: calculated after determining Si and Su
Text: [formula] in which Ka is the ionization constant (dissociation constant) of the active compound in water, Si is the solubility of the ionized form of the compound, and Su is the solubility of the non-ionized form of the compound.
(§1) [formula] in which Ka is the ionization constant (dissociation constant) of the active compound of the medicament in water, Si is the solubility of the ionized form of the compound, and Su is the solubility of the non-ionized form of the compound. Si and Su can be easily obtained by measuring the drug solubility at two extreme pH levels where the ionized or non-ionized species are dominating. For example, after determining the Si and Su of propranolol and sildenafil, their pHmax values are calculated to be 7.62 and 4.25, respectively.
(§2) It has been investigated that permeability across the sublingual mucosa is dependent on the concentration of non-ionized propranolol in the environment. When a formulation of propranolol provides saliva with pH of about 7.2 to about 7.8, propranolol should maintain relatively high solubility as well as high fraction of non-ionized form in the saliva of human oral cavity. Preferably, the formulation for sublingual delivery is at about pH 7.6. This can be confirmed by equation (I). For propranolol.

[2] = oral administration of propranolol tablets, cited from earlier work
[3] = Solubility of ionized and non-ionized forms and ionization constant; assay type: physicochemical
Text: as §1, §2

Row | SMILES | pHmax [1] | onset of action [2] | plasma half-life [2] [h] | bioavailability ([2]; hepatic first-pass effect) | solubility [3] [µg/mL]
1 | CC(C)NCC(O)COc1cccc2ccccc12 (stereo not drawn) [propranolol, 1-(isopropylamino)-3-(1-naphthyloxy)-2-propanol] | 7.62 | over 1 hr | 2.8 to 4.4 | 10-30% | 539 (≈ 2080 µM)
2 | CCCc1nn(C)c2c(=O)[nH]c(-c3cc(S(=O)(=O)N4CCN(C)CC4)ccc3OCC)nc12 [sildenafil] | 4.25 |  |  |  | 
